Measured values as given in patent US20260297060A1, “COMPOUNDS FOR THE DEGRADATION OF MUTANT BRAF” (C4 THERAPEUTICS, INC., priority 2023, published 2026).

Tested on: A375 human melanoma xenografts
Assay: In vivo therapeutic efficacy in A375 human melanoma xenografts (tumor volume, T/C, TGI), Example 14
Design: species or system human tumor in female BALB/c nude mice
Conditions: for T/C / TGI: PG-D21
Description: Agents were tested in the A375 human melanoma xenografts. Compound 26 and Compound 141 were administered to BALB/c nude mice bearing A375 tumors from PG-DO and dosed via PO twice a day (BID) or third a day (TIP) or dosed P daily (QD) from PG-D. Dabrafenib was administered to BALB/c nude mice bearing A375 tumors from PG-D1 and dosed via P daily (QD). Compound 26 was dosed at 1.5 mg/kg (QD), 2 mg/kg (TID), 3 mg/kg (BID), 6 mg/kg (QD) and 10 mg/kg (BID) for 21 days. Compound 141 was dosed at 0.75 mg/kg (BID), 1 mg/kg (TID), 1.5 mg/kg (BID), 3 mg/kg (QD) and 5 mg/kg (BID) for 21 days. Dabrafenib was dosed at 100 mg/kg for 21 days. This study was non-GLP.
One hundred and thirty-eight female BALB/c nude Mus Musculus mice procured from Shanghai Lingchang Biological Science and Technology Co., LTD between the ages of six to eight weeks and with body weight between eighteen and twenty-two grams were used for the study. A spare mouse was also procured.
The A375 tumor cells were maintained in vitro in DMEM medium supplemented with 10% fetal bovine serum and 1% Penicillin-Streptomycin at 37° C. in an atmosphere of 5% CO2 in air. The tumor cells were routinely sub-cultured twice weekly. The cells growing in an exponential growth phase were harvested and counted for tumor inoculation.
Each mouse was inoculated subcutaneously at the right flank with A375 cells (5×10^6) in 0.2 mL of PBS supplemented with Matrigel (PBS: Matrigel=1:1) for tumor development. Animals were grouped for efficacy study on day 15 after tumor inoculation when the average tumor volume reached 220 mm^3. The test articles administration and the animal numbers in each group are shown in the above experimental Table 75.
At the time of routine monitoring, the animals were checked daily for any effects of tumor growth and treatments on normal behavior such as mobility, food and water consumption (by looking only), body weight gain/loss (body weights were measured twice weekly), eye/hair matting and any other abnormal effect as stated in the protocol. Death and observed clinical signs were recorded on the basis of the numbers of animals within each subset.
Prior to the onset of drug treatment, mice were measured for tumor size in two dimensions using a caliper, and the tumor volume (mm^3) was calculated using formula V=0.5 a×b^2 where a and b are the long and short diameters of the tumor in mm, respectively. Mice were randomized into different treatment groups based on the tumor volume.
The major endpoint was to see if the tumor growth could be delayed or mice could be cured. The tumor size was then used for calculations of T/C value. The T/C value (in percent) is an indication of antitumor effectiveness; T and C are the mean volumes of the treated and control groups, respectively on specified day.
TGI was calculated for each group using the formula: TGI (%)=[1−(Ti−T0)/(Ci−C0)]×100; Ti is the average tumor volume of a treatment group on a given day, T0 is the average tumor volume of the treatment group on the day of treatment start, Ci is the average tumor volume of the vehicle control group on the same day with Ti, and C0 is the average tumor volume of the vehicle group on the day of treatment start.
A one-way ANOVA followed by Dunnett's multiple comparison test was performed to compare tumor volume among vehicle group (Group 1) and treatment groups (Group 2-Group 12). All data were analyzed using GraphPad Prism, ns indicates p>0.05, * indicates p<0.05, ** indicates p<0.01, *** indicates p<0.001 and **** indicates p<0.0001.
Tumor growth inhibition of Compound 26, Compound 141 and dabrafenib in the treatment of female BALB/c nude mice bearing A375 xenografts was calculated based on tumor volume measured on […]. TGI and T/C were calculated respectively and the data are detailed in Table 82.

[1] = Compound 141, 1.5 mg/kg p.o. BID × 21 days

CCN(C)S(=O)(=O)Nc1ccc(F)c(Oc2ccc3ncn(C4CC5(CCN(C6CC7(C6)CN(c6cc8c(cc6F)c(N6CCC(=O)NC6=O)nn8C)C7)CC5)C4)c(=O)c3c2)c1C#N (stereo not drawn) [Compound 141, 6-[2-cyano-3-[[ethyl(methyl)sulfamoyl]amino]-6-fluoro-phenoxy]-3-[7-[2-[3-(2,4-dioxohexahydropyrimidin-1-yl)-5-fluoro-1-methyl-indazol-6-yl]-2-azaspiro[3.3]heptan-6-yl]-7-azaspiro[3.5]nonan-2-yl]-4-oxo-quinazoline]
Tumor volume (1.5 mg/kg p.o. BID x 21 days, day 35 (dosing-free regrowth), mean ± SEM): 1374 ± 116 mm^3
Tumor volume (1.5 mg/kg p.o. BID x 21 days, day 39 (dosing-free regrowth), mean ± SEM): 1709 ± 117 mm^3
Tumor volume (1.5 mg/kg p.o. BID x 21 days, day 42 (dosing-free regrowth), mean ± SEM): 2051 ± 177 mm^3
Tumor volume (1.5 mg/kg p.o. BID x 21 days, day 46 (dosing-free regrowth), mean ± SEM): 2593 ± 258 mm^3
Tumor volume (1.5 mg/kg p.o. BID x 21 days, day 49 (dosing-free regrowth), mean ± SEM): 2727 ± 382 mm^3
Tumor volume (1.5 mg/kg p.o. BID x 21 days, day 53 (dosing-free regrowth), mean ± SEM): 3079 ± 78 mm^3
Tumor volume (3 mg/kg p.o. QD x 21 days, day 0, mean ± SEM): 220 ± 15 mm^3
Tumor volume (3 mg/kg p.o. QD x 21 days, day 4, mean ± SEM): 253 ± 15 mm^3
Tumor volume (3 mg/kg p.o. QD x 21 days, day 7, mean ± SEM): 214 ± 17 mm^3
Tumor volume (3 mg/kg p.o. QD x 21 days, day 11, mean ± SEM): 169 ± 15 mm^3
Tumor volume (3 mg/kg p.o. QD x 21 days, day 14, mean ± SEM): 144 ± 16 mm^3
Tumor volume (3 mg/kg p.o. QD x 21 days, day 18, mean ± SEM): 172 ± 19 mm^3
Tumor volume (3 mg/kg p.o. QD x 21 days, day 21, mean ± SEM): 208 ± 30 mm^3
Tumor volume (3 mg/kg p.o. QD x 21 days, day 25 (dosing-free regrowth), mean ± SEM): 486 ± 63 mm^3
Tumor volume (3 mg/kg p.o. QD x 21 days, day 28 (dosing-free regrowth), mean ± SEM): 773 ± 63 mm^3
Tumor volume (3 mg/kg p.o. QD x 21 days, day 32 (dosing-free regrowth), mean ± SEM): 985 ± 85 mm^3
Tumor volume (3 mg/kg p.o. QD x 21 days, day 35 (dosing-free regrowth), mean ± SEM): 1339 ± 71 mm^3
Tumor volume (3 mg/kg p.o. QD x 21 days, day 39 (dosing-free regrowth), mean ± SEM): 1690 ± 103 mm^3
Tumor volume (3 mg/kg p.o. QD x 21 days, day 42 (dosing-free regrowth), mean ± SEM): 2099 ± 177 mm^3
Tumor volume (3 mg/kg p.o. QD x 21 days, day 46 (dosing-free regrowth), mean ± SEM): 2737 ± 176 mm^3
Tumor volume (3 mg/kg p.o. QD x 21 days, day 49 (dosing-free regrowth), mean ± SEM): 3078 ± 168 mm^3
Tumor volume (3 mg/kg p.o. QD x 21 days, day 53 (dosing-free regrowth)): 3659 mm^3
Tumor Size on PG-D21 (Mean ± SEM) (3 mg/kg p.o. QD × 21 days): 208 ± 30 mm^3
T/C (3 mg/kg p.o. QD × 21 days): 11.0%
TGI (3 mg/kg p.o. QD × 21 days): 100.8%
Tumor volume (5 mg/kg p.o. BID x 21 days, day 0, mean ± SEM): 220 ± 15 mm^3
Tumor volume (5 mg/kg p.o. BID x 21 days, day 4, mean ± SEM): 166 ± 11 mm^3
Tumor volume (5 mg/kg p.o. BID x 21 days, day 7, mean ± SEM): 100 ± 7 mm^3
Tumor volume (5 mg/kg p.o. BID x 21 days, day 11, mean ± SEM): 60 ± 4 mm^3
Tumor volume (5 mg/kg p.o. BID x 21 days, day 14, mean ± SEM): 38 ± 2 mm^3
Tumor volume (5 mg/kg p.o. BID x 21 days, day 18, mean ± SEM): 27 ± 3 mm^3
Tumor volume (5 mg/kg p.o. BID x 21 days, day 21, mean ± SEM): 23 ± 3 mm^3
Tumor volume (5 mg/kg p.o. BID x 21 days, day 25 (dosing-free regrowth), mean ± SEM): 31 ± 9 mm^3
Tumor volume (5 mg/kg p.o. BID x 21 days, day 28 (dosing-free regrowth), mean ± SEM): 56 ± 24 mm^3
Tumor volume (5 mg/kg p.o. BID x 21 days, day 32 (dosing-free regrowth), mean ± SEM): 109 ± 40 mm^3
Tumor volume (5 mg/kg p.o. BID x 21 days, day 35 (dosing-free regrowth), mean ± SEM): 190 ± 67 mm^3
Tumor volume (5 mg/kg p.o. BID x 21 days, day 39 (dosing-free regrowth), mean ± SEM): 345 ± 111 mm^3
Tumor volume (5 mg/kg p.o. BID x 21 days, day 42 (dosing-free regrowth), mean ± SEM): 484 ± 147 mm^3
Tumor volume (5 mg/kg p.o. BID x 21 days, day 46 (dosing-free regrowth), mean ± SEM): 732 ± 181 mm^3
Tumor volume (5 mg/kg p.o. BID x 21 days, day 49 (dosing-free regrowth), mean ± SEM): 1015 ± 308 mm^3
Tumor volume (5 mg/kg p.o. BID x 21 days, day 53 (dosing-free regrowth), mean ± SEM): 1470 ± 351 mm^3
Tumor volume (5 mg/kg p.o. BID x 21 days, day 56 (dosing-free regrowth), mean ± SEM): 1433 ± 181 mm^3
Tumor Size on PG-D21 (Mean ± SEM) (5 mg/kg p.o. BID × 21 days): 23 ± 3 mm^3
T/C (5 mg/kg p.o. BID × 21 days): 1.2%
TGI (5 mg/kg p.o. BID × 21 days): 111.8%
Tumor Size on PG-D21 (Mean ± SEM) [1]: 208 ± 21 mm^3
T/C [1]: 11.1%
TGI [1]: 100.7%
